The subject of experiment [1] is collagen induced arthritis. The experiment in a line: Collagen induced arthritis in B10RIII mice, clinical arthritis score (EndoTAG-1). The experiment is classed as in vivo. Particulars: endpoint day 11; i.v. every second day; paclitaxel 2.56 mg/kg, Enbrel 10 mg/kg.
Experiment [2] deals with collagen induced arthritis. The experiment in a line: Collagen induced arthritis in DBA/1 mice, clinical arthritis score (EndoMTX). Format: in vivo. Particulars: day 34; i.v. 3 times a week from day 15, 5.0 mg/kg methotrexate where loaded. Here is the method:
Male DBA/1 mice with an age of ten weeks at arrival were purchased from Taconic Europe and housed in isolated cages under save environmental conditions (Five mice per cage, 22° C., 30-70% humidity and 12 h light/dark cycle) with food and water ad libitum. Experimental design was reviewed and approved by local government.
Mice were assigned to the experimental groups acclimated at least 7 days before induction of collagen induced arthritis. Animals were anesthetized intraperitoneally (i.p.) with a mixture of Xylazin and Ketamin. Each animal obtained 4 ml/kg as application volume. 0.5 ml Rompun (20 mg/ml Xylazin) and 1 ml Ketamin (100 mg/ml Ketamin) were mixed (1:2) and diluted 1:4 in 4.5 ml 0.9% NaCl. 2. For the Collagen Type II-CFA emulsions, Collagen (bovine, 4 mg/ml) was mixed 1:1 with CFA by repeated passage through a flexible tube connecting two 1-ml syringes (syringe-syringe-method). This mixture was kept on ice and will be applied within 4 hours after preparation. For the immunization 100 μl Collagen/CFA-emulsion was injected subcutaneously at the base of the tail. The injection of Collagen/CFA-emulsion was done once on day 0 and once as a booster immunization on day 21. After two weeks the animals were controlled for symptoms of collagen induced arthritis (CIA) by joint scoring three times a week. […]

Regarding Enbrel, the “order of antiarthritic efficacy (mean clinical arthritis score)” value in experiment [1] was “Enbrel>EndoTAG-1>EndoTAG-1 placebo and Taxol®”.

As for `CN(Cc1cnc2nc(N)nc(N)c2n1)c1ccc(C(=O)N[C@@H](CCC(=O)O)C(=O)O)cc1` [MTX, N-[4-[[(2,4-diamino-6-pteridinyl)methyl]methylamino]benzoyl]-L-glutamic acid], in experiment [2], the “order of antiarthritic efficacy (mean clinical arthritis score)” value is on record as “EndoMTX>EndoMTX placebo>MTX”.

The record behind these values is patent publication US20090232731A1, “Cationic Liposomal Preparations for the Treatment of Rheumatoid Arthritis” (priority 2006, published 2009).
